The results in this text go back to patent publication US20210127726A1, “METHODS FOR IMPROVING THE SOLUBILITY OF STEVIOL GLYCOSIDE MIXTURES, AND USES” (The Coca-Cola Company, priority 2018, published 2021).

SMILES strings stand for the structures.

The data set in a line: Aqueous solubility of steviol glycosides and blends. The class given is physicochemical. The procedure: A number of methods are known in the art for determining aqueous solubility. In one such method, solubility can be determined by a solvent addition method in which a weighed sample is treated with aliquots of aqueous solvent. The mixture is generally vortexed and/or sonicated between additions to facilitate dissolution. Complete dissolution of the test material is determined by visual inspection. Solubility is calculated based on the total solvent used to provide complete dissolution.
Another method for determining solubility is by measuring the turbidity (NTU units) of a composition using a turbidimeter, such as HACH 2100 AN. In a typical experiment, a portion of the composition to be measured is added to a portion of aqueous solvent (or visa versa) at room temperature. Turbidity is measured after waiting from 2-10 minutes to observe visual dissolution of the portion. Then, another portion of the composition is added, dissolution is observed and turbidity is measured again. This process is repeated until turbidity reaches exceeds beyond acceptable values, typically around 4 NTU-10 NTU. While turbidity measurements can be very useful in determining solubility, it will not detect solids collected on the bottom of a container. Accordingly, it is important to shake the container prior to determining turbidity and confirm a given turbidity measurement with visual inspection of dissolution. […]

`C=C1C[C@@]23CC[C@H]4[C@@](C)(CCC[C@@]4(C)C(=O)O[C@@H]4O[C@H](CO)[C@@H](O)[C@H](O)[C@H]4O[C@@H]4O[C@H](CO)[C@@H](O)[C@H](O)[C@H]4O)[C@@H]2CC[C@]1(O[C@@H]1O[C@H](CO)[C@@H](O)[C@H](O[C@@H]2O[C@H](CO)[C@@H](O)[C@H](O)[C@H]2O)[C@H]1O[C@@H]1O[C@H](CO)[C@@H](O)[C@H](O)[C@H]1O)C3` [Pure reb D, rebaudioside D] registered an aqueous solubility of 0.05 wt %.

For `C=C1C[C@@]23CC[C@H]4[C@@](C)(CCC[C@@]4(C)C(=O)O[C@@H]4O[C@H](CO)[C@@H](O)[C@H](O[C@@H]5O[C@H](CO)[C@@H](O)[C@H](O)[C@H]5O)[C@H]4O[C@@H]4O[C@H](CO)[C@@H](O)[C@H](O)[C@H]4O)[C@@H]2CC[C@]1(O[C@@H]1O[C@H](CO)[C@@H](O)[C@H](O[C@@H]2O[C@H](CO)[C@@H](O)[C@H](O)[C@H]2O)[C@H]1O[C@@H]1O[C@H](CO)[C@@H](O)[C@H](O)[C@H]1O)C3` [Pure reb M, 13-[(2-O-β-D-glucopyranosyl-3-O-β-D-glucopyranosyl-β-D-glucopyranosyl)oxy] ent kaur-16-en-19-oic acid-[(2-O-β-D-glucopyranosyl-3-O-β-D-glucopyranosyl-β-D-glucopyranosyl) ester]], the aqueous solubility turned out to be 0.1 wt %.
